Counter-ions that a name gives are not always drawn.
Tests used:
5-HT1-like receptors = assay: Serotonin-agonistic contractions in segments of the isolated basilar artery of the pig (in vitro antimigraine activity); assay type: cell-based; details: for Maximum Contraction Produced by Test Substance Relative to Maximum Contraction Produced by Serotonin = 1 / relative potency calculated as pD2 of the test substance relative to the pD2 of serotonin determined on the same piece of artery / pD2 = neg. log of Concentration Which Produces 50% of Maximum Contraction: porcine basilar artery, in vitro; for pD2 = neg. log of Concentration Which Produces 50% of Maximum Contraction: concentrations in mol/l
Source text: 3. Investigation of Properties Indicating Antimigraine Activity of Test Substance in vitro. Migraine pains are associated with excessive dilation of the cranial vascular system. […] This property of the test substances can be used as a basis for predicting anti-migraine activity. The serotoninagonistic activity of the substances on 5-HT1 -like receptors can be determined in vitro in isolated organ strips from the basilar artery of a pig. […] Such a contraction is also produced by the test substances and is a good index of the antimigraine activity of the substances. The tests are carried out according to the method described by van Charldorp et al. (Naunyn-Schmiedeb. Arch. Pharmacol. supp. to volume 341, R89, 1990 and Eur. J. Pharmacol. 183, 1106-1107, 1990). Experimental description of the in vitro determination of the effect inducing serotonin-agonistic contractions in segments of the isolated basilar artery of the pig. For the experiment, helical segments of the basilar artery of pigs were used which were isolated from pig brains supplied by a slaughterhouse. Each strip was fixed in an organ bath consisting of 10 ml of a modified Tyrode solution such that the tissue was under a tension of 10 mN. […] The solution was modified by adding 10^-8 mol/l of indomethacin, 10^-7 mol/l of atropine and 10^-7 mol/l of propanolol and adjusted to pH=7.4. The bath was aerated with a mixture of 95% O2 and 5% CO2. After an equilibration phase of 1 hour a contraction of the tissue was produced twice, in each case by addition of serotonin at a concentration of 10^-5 mol/l and the preparation was subsequently washed out. The contraction effect was then measured with increasing serotonin concentration and a cumulative concentration effect curve for serotonin was drawn up. A cumulative concentration effect curve was drawn up for the test substance on the same preparation (after washing out again). In the following Table B, the maximum contraction caused by the test substances in relationship to the maximum contraction produced by serotonin, and the negative logarithm of that concentration of the test substance which produces 50% of the maximum contraction which can be produced by this test substance (=pD2), and the relative potency calculated as pD2 of the test substance relative to the pD2 of serotonin determined on the same piece of artery are given.

Mouse = system: Mouse; design: species or system Male mice; details: in vivo, po, 4320 min
Method: 1. Determination of the minimum toxic dose.
Male mice of 20-25 g weight are administered maximum doses of 300 mg/kg of the test substance p.o. The animals were carefully observed for 3 hours for symptoms of toxicity. Over a period of 72 hours after administration, all symptoms and cases of death are additionally recorded. Concomitant symptoms are likewise observed and recorded. If death or strong toxic symptoms are observed, further mice are administered increasingly lower doses until toxic symptoms no longer occur. The lowest dose which causes death or strong toxic symptoms is given in the following Table A as the minimum toxic dose. The example numbers given in Table A relate to the subsequent preparation examples.

stomach motility = assay: Determination of effect on stomach motility in anaesthetised rats; assay type: in vivo, rats of the SIV 50 strain; details: rat, 100 μmole/kg i.p.; for change in vivo at 100 µmol/kg: ip, read-out: Maximum Amplitude Increase (increase in % of control amplitude)
Method: 2. Determination of effect on stomach motility in anaesthetised rats.
For the tests, groups of 5-6 fasting rats of the SIV 50 strain having a body weight of 220-290 g were used in each test which had been anaesthetised with a ketamine/xylazine mixture. The animals received an initial dose of 1 ml/kg of a solution of 50 mg/ml of ketamine and 10 mg/ml of xylazine administered i.p., and the anaesthetic level was maintained by a continuous intraperitoneal infusion of the same solution at an infusion rate of 1 ml/kg/h. The animals were tracheotomised and laparotomised. After applying a pylorus ligature, a stomach tube was inserted into the stomach and connected at the other end by means of a three-way tap to a calibrated pressure transducer (Statham Element P 23 ID). A corresponding tube was inserted rectally 8-9 cm into the colon and likewise connected in the same manner to a calibrated pressure transducer of the same type. The stomachs of the animals were then filled with 2 ml of water via the tube. After a stabilisation phase of 40 min, the pressure variations in the stomach and colon were measured over a test period of 2 hours and 20 minutes, and the amplitudes produced by the phasic gastric motility were recorded by means of a Watanabe multirecorder (MC 6621). The geometric mean values of the amplitudes during the first 20 min were determined for the individual animals and used as control amplitude values. After the first 20 min, the test substances were administered i.p. The maximum increase in amplitude (=mean value of the 20 minute period in which the highest increase in amplitude occurs) caused by the test substances was determined in % increase of the control amplitude values determined before administration of the test substances, and the mean value for the animal group is given in the following Table A. In addition, the maximum increase in the mean gastric tone caused by the test substances during the test period compared with the mean gastric tone existing before administration of the test substances was recorded. This increase in gastric tone is given in Table A in cm of H2 O (mean value of the animal group). In the colon, the test substances cause amplitude damping.

SMILES | Minimum Toxic Dose (Mouse) | change in vivo at 100 µmol/kg (stomach motility) | Gastric Tone Increase (stomach motility) | further results
NC[C@@H]1CNC(=O)c2cccc3[nH]cc1c23 [Example 1a, 3R(+)-3-Aminomethyl-3,4,5,6-tetrahydro-6-oxo-1H-azepino[5,4,3-cd]indole] |  |  |  | Maximum Contraction Produced by Test Substance Relative to Maximum Contraction Produced by Serotonin = 1 (5-HT1-like receptors): 1.0; relative potency calculated as pD2 of the test substance relative to the pD2 of serotonin determined on the same piece of artery (5-HT1-like receptors): 0.172; pD2 = neg. log of Concentration Which Produces 50% of Maximum Contraction (5-HT1-like receptors): 6.7
O=C1NCC(CNCc2ccccc2)c2c[nH]c3cccc1c23 (centres unmarked) [Example 2, 3-Benzylaminomethyl-3,4,5,6-tetrahydro-6-oxo-1H-azepino[5,4,3-cd]indole] | > 300 mg/kg | 239% |  | 
CNC[C@@H]1CNC(=O)c2cccc3[nH]cc1c23 [Example 4a, 3R(+)-3-methylaminomethyl-3,4,5,6-tetrahydro-6-oxo-1H-azepino[5,4,3-cd]indole hydrochloride] |  |  |  | Maximum Contraction Produced by Test Substance Relative to Maximum Contraction Produced by Serotonin = 1 (5-HT1-like receptors): 0.6; relative potency calculated as pD2 of the test substance relative to the pD2 of serotonin determined on the same piece of artery (5-HT1-like receptors): 0.354; pD2 = neg. log of Concentration Which Produces 50% of Maximum Contraction (5-HT1-like receptors): 7.0
CCNCC1CNC(=O)c2cccc3[nH]cc1c23 (centres unmarked) [Example 5a, 3-Ethylaminomethyl-3,4,5,6-tetrahydro-6-oxo-1H-azepino[5,4,3-cd]indole] | > 300 mg/kg |  | 9.5 cm H2O | 
CCN(CC)CC1CNC(=O)c2cccc3[nH]cc1c23 (centres unmarked) [Example 5b, 3-Diethylaminomethyl-3,4,5,6-tetrahydro-6-oxo-1H-azepino[5,4,3-cd]indole] | > 300 mg/kg | 449% | 3.8 cm H2O | 
CC(C)NCC1CNC(=O)c2cccc3[nH]cc1c23 (centres unmarked) [Example 6, 3-Isopropylaminomethyl-3,4,5,6-tetrahydro-6-oxo-1H-azepino[5,4,3-cd]indole] | > 300 mg/kg | 609% | 15.4 cm H2O | 
NCCC1Cc2c[nH]c3cccc(c23)C(=O)N1 (centres unmarked) [Example 8, 4-(2-Aminoethyl)-3,4,5,6-tetrahydro-6-oxo-1H-azepino[5,4,3-cd]indole] | > 300 mg/kg | 569% |  | 
NCC1CNC(=O)c2cccc3c2c1cn3Cc1ccccc1 (centres unmarked) [Example 10, 1-Benzyl-3-aminomethyl-3,4,5,6-tetrahydro-6-oxo-1H-azepino[5,4,3-cd]indole] | > 300 mg/kg | 663% | 10.5 cm H2O | 
COCN1CC(CN)c2c[nH]c3cccc(c23)C1=O (centres unmarked) [Example 12, 3-aminomethyl-5-methoxymethyl-3,4,5,6-tetrahydro-6-oxo-1H-azepino[5,4,3-cd]indole] |  |  |  | Maximum Contraction Produced by Test Substance Relative to Maximum Contraction Produced by Serotonin = 1 (5-HT1-like receptors): 0.7; relative potency calculated as pD2 of the test substance relative to the pD2 of serotonin determined on the same piece of artery (5-HT1-like receptors): 0.050; pD2 = neg. log of Concentration Which Produces 50% of Maximum Contraction (5-HT1-like receptors): 6.0
NCC1CNC(=O)c2cccc3c2c1cn3CCCc1ccccc1 (centres unmarked) [Example 13, 3-Aminomethyl-1-(3-phenylpropyl)-3,4,5,6-tetrahydro-6-oxo-1H-azepino[5,4,3-cd]indole] | > 300 mg/kg | 332% | 7.2 cm H2O | 
O=C1NCC(CN2CCCCC2)c2c[nH]c3cccc1c23 (centres unmarked) [Example 14, 3-(1-Piperidinylmethyl)-3,4,5,6-tetrahydro-6-oxo-1H-azepino[5,4,3-cd]indole] | > 300 mg/kg |  | 3.0 cm H2O | 
CN(C)C=NCC1CNC(=O)c2cccc3[nH]cc1c23 (centres unmarked) [Example 15, 3-(Dimethylaminomethylideneaminomethyl)-3,4,5,6-tetrahydro-6-oxo-1H-azepino[5,4,3-cd]indole] | > 300 mg/kg | 308% | 3.1 cm H2O | 
O=C1NC(CN2CCN(c3ccccc3)CC2)Cc2c[nH]c3cccc1c23 (centres unmarked) [Example 17, 4-(4-Phenylpiperazin-1-ylmethyl)-3,4,5,6-tetrahydro-6-oxo-1H-azepino[5,4,3-cd]indole] | > 300 mg/kg | 293% |  | 
Cc1ccc(CNCC2CNC(=O)c3cccc4[nH]cc2c34)cc1 (centres unmarked) [Example 24] | > 300 mg/kg | 195% |  | 
CN1CCN(CC2Cc3c[nH]c4cccc(c34)C(=O)N2)CC1 (centres unmarked) [Example 25] | 300 mg/kg | 206% |  | 
O=C1NC(CNC2CCCCC2)Cc2c[nH]c3cccc1c23 (centres unmarked) [Example 28] | > 300 mg/kg | 17% | 0.5 cm H2O | 
O=C1NC(CN2CCOCC2)Cc2c[nH]c3cccc1c23 (centres unmarked) [Example 29] | > 300 mg/kg | 154% |  | 
CC(C)(C)NCC1Cc2c[nH]c3cccc(c23)C(=O)N1 (centres unmarked) [Example 31] | > 300 mg/kg | 928% |  | 
COc1ccc(CCNCC2CNC(=O)c3cccc4[nH]cc2c34)cc1OC (centres unmarked) [Example 32] | > 300 mg/kg | 922% |  | 
CC(C)n1cc2c3c(cccc31)C(=O)NCC2CN (centres unmarked) [Example 34] |  | 467% |  | 
COc1ccc(CCn2cc3c4c(cccc42)C(=O)NCC3CN)cc1OC (centres unmarked) [Example 36] | > 300 mg/kg | 351% | 11.5 cm H2O | 
O=C1NCC(CN2CCCC2)c2c[nH]c3cccc1c23 (centres unmarked) [Example 37] | > 300 mg/kg | 950% | 4.0 cm H2O | 
CCCNCC1CNC(=O)c2cccc3[nH]cc1c23 (centres unmarked) [Example 38] | > 300 mg/kg | 559% | 12.4 cm H2O | 
CN(C)CC1CNC(=O)c2cccc3[nH]cc1c23 (centres unmarked) [Example 39] | > 300 mg/kg | 569% | 1.8 cm H2O | 
CCCN(CCC)CC1CNC(=O)c2cccc3[nH]cc1c23 (centres unmarked) [Example 40] | > 300 mg/kg | 997% | 6.5 cm H2O | 
CCCCNCC1CNC(=O)c2cccc3[nH]cc1c23 (centres unmarked) [Example 41] | > 300 mg/kg | 234% | 2.7 cm H2O | 
O=C1NC(CNC2CC2)Cc2c[nH]c3cccc1c23 (centres unmarked) [Example 45] | > 300 mg/kg | 580% | 3.5 cm H2O | 
O=C1NCC(CNCC2CC2)c2c[nH]c3cccc1c23 (centres unmarked) [Example 47] |  |  | 6.7 cm H2O | 
NCCc1c[nH]c2ccc(O)cc12 [Serotonin, reference compound] |  |  |  | action on 5-HT1-like receptors in the basilar artery (contraction) (5-HT1-like receptors; isolated basilar artery): concentration -dependent contraction

From patent US5272143A, “6-oxoazepinoindole compounds, and pharmaceutical compositions containing them” (Kali-Chemie Pharma GmbH, priority 1991, dated 1993)
